The text below walks through data of PMC11995724, “Antibiotic target discovery by integrated phenotypic and activity-based profiling of electrophilic fragments” (Cell chemical biology, 2025).

The viability is a read-out of living cells in per cent, often relative to untreated cells.

This data set can be described thus: in vitro. As to conditions: human, hek293t cells.
As for `CC(C)NC(=O)C(C#N)=Cc1c(Cl)nc2ccccn12` [9-A11, 3-{2-chloroimidazo[1,2-a]pyridin-3-yl}-2-cyano-N-(propan-2-yl)prop-2-enamide], the viability at 48 h, 25 µM came out at 112%.

Consider `CC(=O)N(c1ccccc1)c1nc(C=C(C#N)C(=O)NC2CC2)cs1` [9-A12, 2-cyano-N-cyclopropyl-3-[2-(N-phenylacetamido)-1,3-thiazol-4-yl]prop-2-enamide], for which the viability at 48 h, 25 µM was 123%.

For the molecule `CC(C)NC(=O)C(C#N)=Cc1cccc(Cl)c1` [9-A13, 3-(3-chlorophenyl)-2-cyano-N-(propan-2-yl)prop-2-enamide], the viability at 48 h, 25 µM is 99.7%.

`CN(C)c1ccc(C=C(C#N)C(=O)N2CCC2)cc1` [9-A14, 2-(azetidine-1-carbonyl)-3-[4-(dimethylamino)phenyl]prop-2-enenitrile]: the viability at 48 h, 25 µM worked out at 106%.

In the case of `N#CC(=Cc1ccc2c(c1)OCO2)C(=O)NCc1ccco1` [9-A15, 3-(1,3-dioxaindan-5-yl)-2-cyano-N-[(furan-2-yl)methyl]prop-2-enamide], the viability at 48 h, 25 µM amounted to 119%.

On to `N#CC(=Cc1cnn(CCCl)c1)C(=O)NC1CCCCC1` [9-A16, 3-[1-(2-chloroethyl)-1H-pyrazol-4-yl]-2-cyano-N-cyclohexylprop-2-enamide], for which the viability at 48 h, 25 µM amounted to 109%.

`COc1cccc2cc(C=C(C#N)C(=O)Nc3ccc(C)cc3)oc12` [9-A17, 2-cyano-3-(7-methoxy-1-benzofuran-2-yl)-N-(4-methylphenyl)prop-2-enamide]: the viability at 48 h, 25 µM was determined as 89%.

For the molecule `COc1ccc(C=C(C#N)C(=O)Nc2ccccc2C(=O)O)cc1O` [9-A18, 2-[2-cyano-3-(3-hydroxy-4-methoxyphenyl)prop-2-enamido]benzoic acid], the viability at 48 h, 25 µM was found to be 104%.

Take `COc1ccc(C=C(C#N)C(=O)Nc2ccc(C)cc2)cc1` [9-A19, 2-cyano-3-(4-methoxyphenyl)-N-(4-methylphenyl)prop-2-enamide]: the viability at 48 h, 25 µM came to 103%.

Take `N#CC(=Cc1cccc(O)c1)C(=O)Nc1ccccc1C(F)(F)F` [9-A20, 2-cyano-3-(3-hydroxyphenyl)-N-[2-(trifluoromethyl)phenyl]prop-2-enamide]: the viability at 48 h, 25 µM was found to be 109%.

Consider `N#CC(C(=O)N1CCCCC1)=C1N=C(N)c2ccccc21` [9-A21, 2-(3-amino-1H-isoindol-1-ylidene)-3-oxo-3-(piperidin-1-yl)propanenitrile], for which the viability at 48 h, 25 µM is 102%.

Consider `N#CC(=Cc1ccc(C#N)cc1)C(=O)Nc1ccc(F)c(Cl)c1` [9-A22, N-(3-chloro-4-fluorophenyl)-2-cyano-3-(4-cyanophenyl)prop-2-enamide], for which the viability at 48 h, 25 µM is 102%.

Take `N#CC(=Cc1ccc(N2CCOCC2)cc1)C(=O)Nc1ccccc1F` [9-B03, 2-cyano-N-(2-fluorophenyl)-3-[4-(morpholin-4-yl)phenyl]prop-2-enamide]: the viability at 48 h, 25 µM was 89.3%.

As for `CCN(CC)C(=O)/C(C#N)=C/c1cc(O)c(O)c([N+](=O)[O-])c1` [9-B04, (2E)-2-cyano-3-(3,4-dihydroxy-5-nitrophenyl)-N,N-diethylprop-2-enamide], the viability at 48 h, 25 µM worked out at 105%.

Turning to `Cc1c(Cl)cccc1NC(=O)C(C#N)=Cc1cccs1` [9-B05, N-(3-chloro-2-methylphenyl)-2-cyano-3-(thiophen-2-yl)prop-2-enamide], the viability at 48 h, 25 µM was found to be 108%.

On to `N#CC(=Cc1cccc(-c2ccncc2)c1)C(=O)NCc1ccco1` [9-B06, 2-cyano-N-[(furan-2-yl)methyl]-3-[3-(pyridin-4-yl)phenyl]prop-2-enamide], for which the viability at 48 h, 25 µM turned out to be 68.2%.

As for `N#CC(=Cc1c[nH]c2ccccc12)C(=O)Nc1ccc2c(c1)OCCO2` [9-B07, 2-cyano-N-(2,3-dihydro-1,4-benzodioxin-6-yl)-3-(1H-indol-3-yl)prop-2-enamide], the viability at 48 h, 25 µM worked out at 101%.

As to `N#CC(=Cc1ccc(-c2ccccc2)cc1)C(=O)N1CCCC1` [9-B08, 3-{[1,1'-biphenyl]-4-yl}-2-(pyrrolidine-1-carbonyl)prop-2-enenitrile], the viability at 48 h, 25 µM was found to be 71.2%.

Take `C=CCNC(=O)C(C#N)=Cc1cccc(O)c1` [9-B09, 2-cyano-3-(3-hydroxyphenyl)-N-(prop-2-en-1-yl)prop-2-enamide]: the viability at 48 h, 25 µM amounted to 113%.

On to `N#CC(=Cc1c[nH]c2ccccc12)C(=O)Nc1ccccn1` [9-B10, 2-cyano-3-(1H-indol-3-yl)-N-(pyridin-2-yl)prop-2-enamide], for which the viability at 48 h, 25 µM came out at 111%.

Consider `N#CC(=Cc1ccco1)C(=O)NCCc1ccc(F)cc1F` [9-B11, 2-cyano-N-[2-(2,4-difluorophenyl)ethyl]-3-(furan-2-yl)prop-2-enamide], for which the viability at 48 h, 25 µM came to 122%.

Regarding `N#CC(=Cc1csc(COc2ccccc2)n1)C(N)=O` [9-B12, 2-cyano-3-[2-(phenoxymethyl)-1,3-thiazol-4-yl]prop-2-enamide], the viability at 48 h, 25 µM worked out at 116%.

Consider `CCCCNC(=O)C(C#N)=Cc1ccsc1` [9-B13, N-butyl-2-cyano-3-(thiophen-3-yl)prop-2-enamide], for which the viability at 48 h, 25 µM was 102%.

`CNC(=O)C(C#N)=Cc1ccc(F)cc1` [9-B14, 2-cyano-3-(4-fluorophenyl)-N-methylprop-2-enamide]: the viability at 48 h, 25 µM is 109%.

Take `CC(C)c1nc(C=C(C#N)C(=O)NC2CCCCC2)c2ccccn12` [9-B15, 2-cyano-N-cyclohexyl-3-[3-(propan-2-yl)imidazo[1,5-a]pyridin-1-yl]prop-2-enamide]: the viability at 48 h, 25 µM was 103%.

For `CC(C)NC(=O)C(C#N)=Cc1ccc(-c2ccc([N+](=O)[O-])cc2)s1` [9-B16, 2-cyano-3-[5-(4-nitrophenyl)thiophen-2-yl]-N-(propan-2-yl)prop-2-enamide], the viability at 48 h, 25 µM was 99.6%.

Regarding `Cc1cc(C=C(C#N)C(=O)Nc2cnn(C)c2)c(C)n1C1CCCCC1` [9-B17, 2-cyano-3-(1-cyclohexyl-2,5-dimethyl-1H-pyrrol-3-yl)-N-(1-methyl-1H-pyrazol-4-yl)prop-2-enamide], the viability at 48 h, 25 µM was 96.1%.

Consider `Cc1nc2cc(NC(=O)C(C#N)=Cc3ccco3)ccc2n1C` [9-B18, 2-cyano-N-(1,2-dimethyl-1H-1,3-benzodiazol-5-yl)-3-(furan-2-yl)prop-2-enamide], for which the viability at 48 h, 25 µM was 106%.

Turning to `Cc1ccc(NC(=O)C(C#N)=CC2=Cc3ccccc3OC2)cc1` [9-B19, 3-(2H-chromen-3-yl)-2-cyano-N-(4-methylphenyl)prop-2-enamide], the viability at 48 h, 25 µM is 119%.

On to `N#CC(=Cc1ccco1)C(=O)NCc1nc(-c2ccncc2)cs1` [9-B20, 2-cyano-3-(furan-2-yl)-N-{[4-(pyridin-4-yl)-1,3-thiazol-2-yl]methyl}prop-2-enamide], for which the viability at 48 h, 25 µM is 109%.

Regarding `CN(C)c1ccc(C=C(C#N)C(=O)Nc2ccc3c(c2)OCCO3)cc1` [9-B21, 2-cyano-N-(2,3-dihydro-1,4-benzodioxin-6-yl)-3-[4-(dimethylamino)phenyl]prop-2-enamide], the viability at 48 h, 25 µM is 110%.

Take `COc1ccc(C=C(C#N)C(=O)Nc2cc(C)ccc2C)cc1Cl` [9-B22, 3-(3-chloro-4-methoxyphenyl)-2-cyano-N-(2,5-dimethylphenyl)prop-2-enamide]: the viability at 48 h, 25 µM worked out at 92.9%.

As for `CCCCNC(=O)C(C#N)=Cc1cc(C)cc(C)c1` [9-C03, N-butyl-2-cyano-3-(3,5-dimethylphenyl)prop-2-enamide], the viability at 48 h, 25 µM was found to be 122%.

As for `COc1cc(C)c(C=C(C#N)C(=O)Nc2ccc(C)cc2)cc1C(C)C` [9-C04, 2-cyano-3-[4-methoxy-2-methyl-5-(propan-2-yl)phenyl]-N-(4-methylphenyl)prop-2-enamide], the viability at 48 h, 25 µM is 127%.

Regarding `CCCNC(=O)C(C#N)=Cc1ccc(-n2cncn2)c(C)c1` [9-C05, 2-cyano-3-[3-methyl-4-(1H-1,2,4-triazol-1-yl)phenyl]-N-propylprop-2-enamide], the viability at 48 h, 25 µM is 96%.

As to `CCOc1ccc(C=C(C#N)C(=O)Nc2nccs2)cc1` [9-C06, 2-cyano-3-(4-ethoxyphenyl)-N-(1,3-thiazol-2-yl)prop-2-enamide], the viability at 48 h, 25 µM was found to be 94.3%.

Take `CC(C)NC(=O)C(C#N)=Cc1cccc(Cl)c1Cl` [9-C07, 2-cyano-3-(2,3-dichlorophenyl)-N-(propan-2-yl)prop-2-enamide]: the viability at 48 h, 25 µM turned out to be 39.7%.

`COc1ccc(NC(=O)C(C#N)=Cc2cccc(O)c2)cc1Cl` [9-C08, N-(3-chloro-4-methoxyphenyl)-2-cyano-3-(3-hydroxyphenyl)prop-2-enamide]: the viability at 48 h, 25 µM was determined as 102%.

`CC(C)NC(=O)C(C#N)=Cc1ccc(Cl)cc1` [9-C09, 3-(4-chlorophenyl)-2-cyano-N-(propan-2-yl)prop-2-enamide]: the viability at 48 h, 25 µM was determined as 86.7%.

For the molecule `C#CCOc1ccccc1C=C(C#N)C(=O)Nc1ccccc1F` [9-C10, 2-cyano-N-(2-fluorophenyl)-3-[2-(prop-2-yn-1-yloxy)phenyl]prop-2-enamide], the viability at 48 h, 25 µM is 80.4%.

As for `CCCCNC(=O)C(C#N)=Cc1cc(C)ccc1C` [9-C11, N-butyl-2-cyano-3-(2,5-dimethylphenyl)prop-2-enamide], the viability at 48 h, 25 µM was 93.1%.

Take `C=CCNC(=O)C(C#N)=Cc1ccc(-c2ccc(F)cc2)s1` [9-C12, 2-cyano-3-[5-(4-fluorophenyl)thiophen-2-yl]-N-(prop-2-en-1-yl)prop-2-enamide]: the viability at 48 h, 25 µM is 111%.

Consider `CC(C)NC(=O)C(C#N)=Cc1ccc2ccccc2c1` [9-C13, 2-cyano-3-(naphthalen-2-yl)-N-(propan-2-yl)prop-2-enamide], for which the viability at 48 h, 25 µM was found to be 77.9%.

For the molecule `N#CC(=Cc1ccc(SC(F)(F)F)cc1)C(=O)NC1CC1` [9-C14, 2-cyano-N-cyclopropyl-3-{4-[(trifluoromethyl)sulfanyl]phenyl}prop-2-enamide], the viability at 48 h, 25 µM came to 55.5%.

`CC(C)NC(=O)C(C#N)=Cc1ccccc1OC(C)C` [9-C15, 2-cyano-N-(propan-2-yl)-3-[2-(propan-2-yloxy)phenyl]prop-2-enamide]: the viability at 48 h, 25 µM worked out at 112%.

In the case of `N#CC(=Cc1csc(C2CC2)n1)C(=O)Nc1ccccc1C(=O)O` [9-C16, 2-[2-cyano-3-(2-cyclopropyl-1,3-thiazol-4-yl)prop-2-enamido]benzoic acid], the viability at 48 h, 25 µM was 92.9%.
